Experimental data published in ChEMBL document CHEMBL5212743, “Selectivity Literature for EUbOPEN Chemogenomics Library wave 3” (2023).

Experiments:
[1] = molecular target: T1, Alpha-1A adrenergic receptor (Homo sapiens) (UniProt P35348); assay: Selectivity interaction (Receptor panel (Ricerca)) EUB0000216b ADRA1A; conditions: at 1 µM
T1 sequence (whole entry): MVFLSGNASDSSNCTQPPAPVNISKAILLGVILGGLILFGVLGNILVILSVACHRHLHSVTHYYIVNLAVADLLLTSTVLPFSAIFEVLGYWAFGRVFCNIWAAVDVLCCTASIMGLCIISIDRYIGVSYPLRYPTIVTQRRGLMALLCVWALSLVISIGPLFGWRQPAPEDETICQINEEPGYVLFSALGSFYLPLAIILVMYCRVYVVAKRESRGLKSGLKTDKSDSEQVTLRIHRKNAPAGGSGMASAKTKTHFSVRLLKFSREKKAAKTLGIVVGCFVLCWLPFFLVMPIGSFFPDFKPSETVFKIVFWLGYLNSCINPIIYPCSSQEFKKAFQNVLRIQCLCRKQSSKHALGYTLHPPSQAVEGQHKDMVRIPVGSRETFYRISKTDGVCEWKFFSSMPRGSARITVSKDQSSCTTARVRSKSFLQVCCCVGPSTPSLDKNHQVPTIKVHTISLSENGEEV

[2] = molecular target: T2, Protein arginine N-methyltransferase 5 (Homo sapiens, UniProt O14744); assay: Selectivity interaction (Methyltransferase panel (radioactive enzyme assay)) EUB0000216b PRMT5
[3] = molecular target: T3, Histone-lysine N-methyltransferase SETD7 (Homo sapiens, UniProt Q8WTS6); assay: Selectivity interaction (Methyltransferase panel (radioactive enzyme assay)) EUB0000216b SETD7
T3 sequence (Q8WTS6 whole entry): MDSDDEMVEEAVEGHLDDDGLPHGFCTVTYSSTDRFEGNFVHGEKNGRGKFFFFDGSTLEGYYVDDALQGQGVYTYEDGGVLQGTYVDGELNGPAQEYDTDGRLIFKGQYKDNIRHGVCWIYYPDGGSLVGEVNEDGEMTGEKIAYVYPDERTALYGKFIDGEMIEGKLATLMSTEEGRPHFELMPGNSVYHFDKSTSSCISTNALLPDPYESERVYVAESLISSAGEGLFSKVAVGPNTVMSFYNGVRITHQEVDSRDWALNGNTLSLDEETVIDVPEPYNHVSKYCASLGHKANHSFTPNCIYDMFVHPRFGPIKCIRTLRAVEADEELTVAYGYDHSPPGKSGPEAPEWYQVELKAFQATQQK

[4] = molecular target: T4, Histone-lysine N-methyltransferase 2A (Homo sapiens, UniProt Q03164); assay: Selectivity interaction (Methyltransferase panel (radioactive enzyme assay)) EUB0000216b MLL
[5] = molecular target: T5, Histone-lysine N-methyltransferase EHMT1 (Homo sapiens, UniProt Q9H9B1); assay: Selectivity interaction (Methyltransferase panel (radioactive enzyme assay)) EUB0000216b EHMT1
[6] = molecular target: T6, Histone-lysine N-methyltransferase EHMT2 (Homo sapiens, UniProt Q96KQ7); assay: Selectivity interaction (Methyltransferase panel (radioactive enzyme assay)) EUB0000216b EHMT2
[7] = molecular target: T7, Histone-lysine N-methyltransferase EZH2 (Homo sapiens, UniProt Q15910); assay: Selectivity interaction (Methyltransferase panel (radioactive enzyme assay)) EUB0000216b EZH2
[8] = molecular target: T8, Protein arginine N-methyltransferase 3 (Homo sapiens, UniProt O60678); assay: Selectivity interaction (Methyltransferase panel (radioactive enzyme assay)) EUB0000216b PRMT3
[9] = molecular target: T9, N-lysine methyltransferase KMT5A (Homo sapiens, UniProt Q9NQR1); assay: Selectivity interaction (Methyltransferase panel (radioactive enzyme assay)) EUB0000216b SETD8
T9 sequence (Q9NQR1 whole entry): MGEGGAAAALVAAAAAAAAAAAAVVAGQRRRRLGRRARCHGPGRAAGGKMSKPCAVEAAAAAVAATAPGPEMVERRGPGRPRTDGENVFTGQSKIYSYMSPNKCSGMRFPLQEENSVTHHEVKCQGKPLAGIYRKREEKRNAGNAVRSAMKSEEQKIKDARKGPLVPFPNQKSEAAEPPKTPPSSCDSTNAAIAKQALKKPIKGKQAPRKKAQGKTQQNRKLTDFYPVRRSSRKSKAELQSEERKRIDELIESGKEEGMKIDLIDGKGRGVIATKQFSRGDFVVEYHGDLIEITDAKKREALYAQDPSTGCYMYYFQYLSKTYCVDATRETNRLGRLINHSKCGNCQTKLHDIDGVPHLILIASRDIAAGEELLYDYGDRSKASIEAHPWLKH

[10] = molecular target: T10, Histone-lysine N-methyltransferase SETDB1 (Homo sapiens, UniProt Q15047); assay: Selectivity interaction (Methyltransferase panel (radioactive enzyme assay)) EUB0000216b SETDB1
[11] = molecular target: T11, Histone-lysine N-methyltransferase SUV39H2 (Homo sapiens, UniProt Q9H5I1); assay: Selectivity interaction (Methyltransferase panel (radioactive enzyme assay)) EUB0000216b SUV39H2
[12] = molecular target: T12, Histone-lysine N-methyltransferase KMT5C (Homo sapiens, UniProt Q86Y97); assay: Selectivity interaction (Methyltransferase panel (radioactive enzyme assay)) EUB0000216b SUV420H2
[13] = molecular target: T13, 5-hydroxytryptamine receptor 2B (Homo sapiens, UniProt P41595); assay: (§1) Selectivity interaction (Enzyme panel (kinases, GPCRs, ion channels, transporters)) EUB0000197b HTR2B
[14] = molecular target: T13, 5-hydroxytryptamine receptor 2B; assay: as §1; conditions: at 10 µM
[15] = molecular target: Serine/threonine-protein kinase BRSK1 (Homo sapiens) (UniProt Q8TDC3); assay: Selectivity interaction (Enzyme panel (kinases, GPCRs, ion channels, transporters)) EUB0000197b BRSK1; conditions: at 10 µM
[16] = molecular target: Protein N-lysine methyltransferase METTL21A (Homo sapiens) (UniProt Q8WXB1); assay: Selectivity interaction (Methyltransferase panel) EUB0000197b METTL21A
[17] = molecular target: cAMP-dependent protein kinase catalytic subunit PRKX (Homo sapiens) (UniProt P51817); assay: Selectivity interaction (Enzyme panel (kinases, GPCRs, ion channels, transporters)) EUB0000197b PRKX; conditions: at 10 µM
[18] = molecular target: cGMP-dependent protein kinase 2 (Homo sapiens) (UniProt Q13237); assay: Selectivity interaction (Enzyme panel (kinases, GPCRs, ion channels, transporters)) EUB0000197b PRKG2; conditions: at 10 µM
[19] = molecular target: Ribosomal protein S6 kinase alpha-4 (Homo sapiens) (UniProt O75676); assay: Selectivity interaction (Enzyme panel (kinases, GPCRs, ion channels, transporters)) EUB0000197b RPS6KA4; conditions: at 10 µM
[20] = molecular target: Mitogen-activated protein kinase kinase kinase 12 (Homo sapiens) (UniProt Q12852); assay: Selectivity interaction (Enzyme panel (kinases, GPCRs, ion channels, transporters)) EUB0000197b DLK1; conditions: at 10 µM
Adenosine receptor A2b = Adenosine receptor A2b (Homo sapiens, UniProt P29275); assay: Selectivity interaction (Enzyme panel (ion channels, GPCRs, other targets)) EUB0000196bCl ADORA2B
[21] = molecular target: Kappa-type opioid receptor (Homo sapiens, UniProt P41145); assay: Selectivity interaction (Enzyme panel (ion channels, GPCRs, other targets)) EUB0000196bCl OPRK1
[22] = molecular target: T2, Protein arginine N-methyltransferase 5; assay: Selectivity interaction (Methyltransferase panel) EUB0000196bCl PRMT5
[23] = molecular target: T3, Histone-lysine N-methyltransferase SETD7; assay: Selectivity interaction (ITC) EUB0000196bCl SETD7
[24] = molecular target: DNA (cytosine-5)-methyltransferase 1 (Homo sapiens, UniProt P26358); assay: Selectivity interaction (Methyltransferase panel) EUB0000196bCl DNMT1
[25] = molecular target: N-lysine methyltransferase SMYD2 (Homo sapiens, UniProt Q9NRG4); assay: Selectivity interaction (Methyltransferase panel) EUB0000196bCl SMYD2
[26] = molecular target: Bombesin receptor subtype-3 (Homo sapiens, UniProt P32247); assay: Selectivity interaction (Enzyme panel (ion channels, GPCRs, other targets)) EUB0000196bCl BRS3
[27] = molecular target: T4, Histone-lysine N-methyltransferase 2A; assay: Selectivity interaction (Methyltransferase panel) EUB0000196bCl MLL
[28] = molecular target: Histone-lysine N-methyltransferase, H3 lysine-79 specific (Homo sapiens, UniProt Q8TEK3); assay: Selectivity interaction (Methyltransferase panel) EUB0000196bCl DOT1L
[29] = molecular target: T5, Histone-lysine N-methyltransferase EHMT1; assay: Selectivity interaction (Methyltransferase panel) EUB0000196bCl EHMT1
[30] = molecular target: T6, Histone-lysine N-methyltransferase EHMT2; assay: Selectivity interaction (Methyltransferase panel) EUB0000196bCl EHMT2
[31] = molecular target: T14, Histone-lysine N-methyltransferase EZH1 (Homo sapiens, UniProt Q92800); assay: Selectivity interaction (Methyltransferase panel) EUB0000196bCl EZH1
T14 sequence (Q92800 whole entry): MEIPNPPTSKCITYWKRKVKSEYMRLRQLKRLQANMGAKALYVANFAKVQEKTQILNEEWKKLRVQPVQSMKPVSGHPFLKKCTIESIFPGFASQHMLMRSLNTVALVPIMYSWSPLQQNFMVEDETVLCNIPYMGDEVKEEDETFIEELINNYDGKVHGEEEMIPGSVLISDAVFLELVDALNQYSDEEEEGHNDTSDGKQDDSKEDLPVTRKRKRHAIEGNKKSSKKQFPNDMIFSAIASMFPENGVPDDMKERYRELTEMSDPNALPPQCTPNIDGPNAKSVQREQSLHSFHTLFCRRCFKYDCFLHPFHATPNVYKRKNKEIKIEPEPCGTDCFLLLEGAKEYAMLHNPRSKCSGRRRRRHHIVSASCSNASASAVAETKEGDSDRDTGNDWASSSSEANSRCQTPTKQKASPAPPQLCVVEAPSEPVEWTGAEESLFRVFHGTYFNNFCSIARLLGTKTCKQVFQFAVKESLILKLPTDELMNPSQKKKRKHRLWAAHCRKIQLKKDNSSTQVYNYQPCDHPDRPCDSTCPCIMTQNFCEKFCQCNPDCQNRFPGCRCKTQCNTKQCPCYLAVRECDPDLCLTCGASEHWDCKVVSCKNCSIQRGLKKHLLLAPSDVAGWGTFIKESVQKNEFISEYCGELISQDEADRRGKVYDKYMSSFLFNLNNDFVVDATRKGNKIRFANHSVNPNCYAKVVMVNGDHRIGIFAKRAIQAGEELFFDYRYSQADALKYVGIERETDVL

[32] = molecular target: T7, Histone-lysine N-methyltransferase EZH2; assay: Selectivity interaction (Methyltransferase panel) EUB0000196bCl EZH2
[33] = molecular target: Histone-lysine N-methyltransferase NSD2 (Homo sapiens, UniProt O96028); assay: Selectivity interaction (Methyltransferase panel) EUB0000196bCl NSD2
[34] = molecular target: Protein arginine N-methyltransferase 1 (Homo sapiens, UniProt Q99873); assay: Selectivity interaction (Methyltransferase panel) EUB0000196bCl PRMT1
[35] = molecular target: T8, Protein arginine N-methyltransferase 3; assay: Selectivity interaction (Methyltransferase panel) EUB0000196bCl PRMT3
[36] = molecular target: Protein arginine N-methyltransferase 8 (Homo sapiens, UniProt Q9NR22); assay: Selectivity interaction (Methyltransferase panel) EUB0000196bCl PRMT8
[37] = molecular target: Histone-lysine N-methyltransferase SETD2 (Homo sapiens, UniProt Q9BYW2); assay: Selectivity interaction (Methyltransferase panel) EUB0000196bCl SETD2
[38] = molecular target: T9, N-lysine methyltransferase KMT5A; assay: Selectivity interaction (Methyltransferase panel) EUB0000196bCl SETD8
[39] = molecular target: T10, Histone-lysine N-methyltransferase SETDB1; assay: Selectivity interaction (Methyltransferase panel) EUB0000196bCl SETDB1
[40] = molecular target: T11, Histone-lysine N-methyltransferase SUV39H2; assay: Selectivity interaction (Methyltransferase panel) EUB0000196bCl SUV39H2
[41] = molecular target: Histone-lysine N-methyltransferase KMT5B (Homo sapiens, UniProt Q4FZB7); assay: Selectivity interaction (Methyltransferase panel) EUB0000196bCl SUV420H1
[42] = molecular target: T12, Histone-lysine N-methyltransferase KMT5C; assay: Selectivity interaction (Methyltransferase panel) EUB0000196bCl SUV420H2
[43] = molecular target: Motilin receptor (Homo sapiens) (UniProt O43193); assay: Selectivity interaction (Enzyme panel (ion channels, GPCRs, other targets)) EUB0000196bCl MLN
Activin receptor type-1 = Activin receptor type-1 (Homo sapiens, UniProt Q04771); assay: Selectivity interaction (KinomeScan (DiscoverX, competition-binding assay)) EUB0000207b ACVR1

T12 sequence (Q86Y97 whole entry): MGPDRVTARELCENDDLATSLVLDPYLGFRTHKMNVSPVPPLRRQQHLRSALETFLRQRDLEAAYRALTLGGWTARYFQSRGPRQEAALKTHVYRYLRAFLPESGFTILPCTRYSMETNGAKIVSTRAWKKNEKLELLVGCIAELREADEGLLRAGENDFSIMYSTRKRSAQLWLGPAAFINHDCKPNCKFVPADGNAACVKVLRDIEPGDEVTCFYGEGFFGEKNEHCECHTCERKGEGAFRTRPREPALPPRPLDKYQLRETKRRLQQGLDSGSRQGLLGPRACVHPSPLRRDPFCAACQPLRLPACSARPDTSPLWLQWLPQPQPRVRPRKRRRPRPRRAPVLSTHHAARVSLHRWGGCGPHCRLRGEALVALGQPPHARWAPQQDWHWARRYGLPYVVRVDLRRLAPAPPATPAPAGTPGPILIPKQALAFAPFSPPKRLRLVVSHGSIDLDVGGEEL
T5 sequence (Q9H9B1 whole entry): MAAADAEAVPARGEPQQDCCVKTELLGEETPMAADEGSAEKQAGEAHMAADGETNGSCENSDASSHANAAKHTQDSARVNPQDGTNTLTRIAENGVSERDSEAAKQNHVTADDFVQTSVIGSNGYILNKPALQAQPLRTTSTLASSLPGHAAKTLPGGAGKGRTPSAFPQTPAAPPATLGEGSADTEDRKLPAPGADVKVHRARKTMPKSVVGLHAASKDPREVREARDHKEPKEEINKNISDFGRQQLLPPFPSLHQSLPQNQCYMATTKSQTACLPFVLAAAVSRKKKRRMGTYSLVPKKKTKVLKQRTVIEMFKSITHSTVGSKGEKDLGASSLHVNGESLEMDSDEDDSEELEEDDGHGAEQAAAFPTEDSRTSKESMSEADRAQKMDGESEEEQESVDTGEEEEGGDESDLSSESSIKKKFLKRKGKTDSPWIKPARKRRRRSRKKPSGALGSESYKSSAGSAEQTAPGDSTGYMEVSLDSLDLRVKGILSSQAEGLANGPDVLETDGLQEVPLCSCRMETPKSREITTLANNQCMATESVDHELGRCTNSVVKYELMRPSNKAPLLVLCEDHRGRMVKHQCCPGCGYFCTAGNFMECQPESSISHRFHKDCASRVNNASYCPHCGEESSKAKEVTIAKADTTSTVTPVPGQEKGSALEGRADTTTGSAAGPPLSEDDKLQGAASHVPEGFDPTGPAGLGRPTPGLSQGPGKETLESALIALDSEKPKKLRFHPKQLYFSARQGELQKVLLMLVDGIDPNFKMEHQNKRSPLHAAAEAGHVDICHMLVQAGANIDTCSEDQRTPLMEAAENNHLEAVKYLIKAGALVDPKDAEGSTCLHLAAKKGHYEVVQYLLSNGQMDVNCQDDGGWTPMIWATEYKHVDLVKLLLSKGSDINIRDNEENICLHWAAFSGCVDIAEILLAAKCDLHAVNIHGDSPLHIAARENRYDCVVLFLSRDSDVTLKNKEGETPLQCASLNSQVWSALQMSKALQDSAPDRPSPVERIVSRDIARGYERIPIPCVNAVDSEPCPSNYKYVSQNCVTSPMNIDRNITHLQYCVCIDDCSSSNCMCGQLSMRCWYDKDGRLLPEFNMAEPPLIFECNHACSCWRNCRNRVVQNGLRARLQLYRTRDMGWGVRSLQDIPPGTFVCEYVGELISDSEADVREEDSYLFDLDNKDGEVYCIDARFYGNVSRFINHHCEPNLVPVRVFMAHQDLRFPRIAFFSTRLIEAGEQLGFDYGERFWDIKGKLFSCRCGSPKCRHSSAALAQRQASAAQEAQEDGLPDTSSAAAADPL
T7 sequence (Q15910 whole entry): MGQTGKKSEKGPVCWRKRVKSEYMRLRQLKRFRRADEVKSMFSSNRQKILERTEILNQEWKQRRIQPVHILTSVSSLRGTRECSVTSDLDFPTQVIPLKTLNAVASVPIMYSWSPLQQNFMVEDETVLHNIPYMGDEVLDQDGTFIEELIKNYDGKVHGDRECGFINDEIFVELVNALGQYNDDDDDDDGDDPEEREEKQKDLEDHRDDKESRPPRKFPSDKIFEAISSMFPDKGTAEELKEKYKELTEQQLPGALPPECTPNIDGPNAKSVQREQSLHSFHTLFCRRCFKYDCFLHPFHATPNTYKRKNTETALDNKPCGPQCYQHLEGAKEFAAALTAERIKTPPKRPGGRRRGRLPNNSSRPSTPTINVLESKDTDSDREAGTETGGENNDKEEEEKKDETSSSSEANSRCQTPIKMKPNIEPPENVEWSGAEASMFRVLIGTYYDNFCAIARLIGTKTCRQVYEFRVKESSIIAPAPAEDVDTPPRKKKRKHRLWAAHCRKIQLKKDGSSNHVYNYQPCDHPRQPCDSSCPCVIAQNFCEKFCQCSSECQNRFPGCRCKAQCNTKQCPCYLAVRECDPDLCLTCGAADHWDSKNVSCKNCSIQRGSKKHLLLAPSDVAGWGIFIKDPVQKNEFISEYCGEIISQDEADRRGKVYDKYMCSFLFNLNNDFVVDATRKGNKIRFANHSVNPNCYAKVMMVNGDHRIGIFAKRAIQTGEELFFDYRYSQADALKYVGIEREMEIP
T11 sequence (Q9H5I1 whole entry): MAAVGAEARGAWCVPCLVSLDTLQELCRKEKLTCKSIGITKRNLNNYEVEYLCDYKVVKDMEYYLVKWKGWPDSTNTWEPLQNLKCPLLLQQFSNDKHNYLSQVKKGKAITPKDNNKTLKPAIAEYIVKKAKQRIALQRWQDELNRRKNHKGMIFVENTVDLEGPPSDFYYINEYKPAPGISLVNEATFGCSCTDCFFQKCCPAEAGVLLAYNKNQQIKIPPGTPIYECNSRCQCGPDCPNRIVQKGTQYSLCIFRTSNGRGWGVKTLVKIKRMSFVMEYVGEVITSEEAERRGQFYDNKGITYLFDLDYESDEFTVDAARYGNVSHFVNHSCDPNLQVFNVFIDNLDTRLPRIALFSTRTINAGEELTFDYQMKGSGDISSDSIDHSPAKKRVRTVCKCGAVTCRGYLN
T8 sequence (O60678 whole entry): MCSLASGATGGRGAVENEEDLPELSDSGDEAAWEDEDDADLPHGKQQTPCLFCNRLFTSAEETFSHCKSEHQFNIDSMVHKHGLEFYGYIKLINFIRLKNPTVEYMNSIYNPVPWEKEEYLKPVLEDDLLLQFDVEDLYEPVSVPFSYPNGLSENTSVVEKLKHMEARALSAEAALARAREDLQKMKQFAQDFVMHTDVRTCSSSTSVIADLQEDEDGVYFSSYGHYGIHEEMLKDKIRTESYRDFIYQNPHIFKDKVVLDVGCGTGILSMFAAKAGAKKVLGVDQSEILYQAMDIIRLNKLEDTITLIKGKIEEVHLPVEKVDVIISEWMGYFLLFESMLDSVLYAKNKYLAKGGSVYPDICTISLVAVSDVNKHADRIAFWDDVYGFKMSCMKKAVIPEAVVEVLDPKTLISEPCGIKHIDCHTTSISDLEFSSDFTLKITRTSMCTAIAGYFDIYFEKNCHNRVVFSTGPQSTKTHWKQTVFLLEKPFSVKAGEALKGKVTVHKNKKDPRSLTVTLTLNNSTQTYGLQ
T6 sequence (Q96KQ7 whole entry): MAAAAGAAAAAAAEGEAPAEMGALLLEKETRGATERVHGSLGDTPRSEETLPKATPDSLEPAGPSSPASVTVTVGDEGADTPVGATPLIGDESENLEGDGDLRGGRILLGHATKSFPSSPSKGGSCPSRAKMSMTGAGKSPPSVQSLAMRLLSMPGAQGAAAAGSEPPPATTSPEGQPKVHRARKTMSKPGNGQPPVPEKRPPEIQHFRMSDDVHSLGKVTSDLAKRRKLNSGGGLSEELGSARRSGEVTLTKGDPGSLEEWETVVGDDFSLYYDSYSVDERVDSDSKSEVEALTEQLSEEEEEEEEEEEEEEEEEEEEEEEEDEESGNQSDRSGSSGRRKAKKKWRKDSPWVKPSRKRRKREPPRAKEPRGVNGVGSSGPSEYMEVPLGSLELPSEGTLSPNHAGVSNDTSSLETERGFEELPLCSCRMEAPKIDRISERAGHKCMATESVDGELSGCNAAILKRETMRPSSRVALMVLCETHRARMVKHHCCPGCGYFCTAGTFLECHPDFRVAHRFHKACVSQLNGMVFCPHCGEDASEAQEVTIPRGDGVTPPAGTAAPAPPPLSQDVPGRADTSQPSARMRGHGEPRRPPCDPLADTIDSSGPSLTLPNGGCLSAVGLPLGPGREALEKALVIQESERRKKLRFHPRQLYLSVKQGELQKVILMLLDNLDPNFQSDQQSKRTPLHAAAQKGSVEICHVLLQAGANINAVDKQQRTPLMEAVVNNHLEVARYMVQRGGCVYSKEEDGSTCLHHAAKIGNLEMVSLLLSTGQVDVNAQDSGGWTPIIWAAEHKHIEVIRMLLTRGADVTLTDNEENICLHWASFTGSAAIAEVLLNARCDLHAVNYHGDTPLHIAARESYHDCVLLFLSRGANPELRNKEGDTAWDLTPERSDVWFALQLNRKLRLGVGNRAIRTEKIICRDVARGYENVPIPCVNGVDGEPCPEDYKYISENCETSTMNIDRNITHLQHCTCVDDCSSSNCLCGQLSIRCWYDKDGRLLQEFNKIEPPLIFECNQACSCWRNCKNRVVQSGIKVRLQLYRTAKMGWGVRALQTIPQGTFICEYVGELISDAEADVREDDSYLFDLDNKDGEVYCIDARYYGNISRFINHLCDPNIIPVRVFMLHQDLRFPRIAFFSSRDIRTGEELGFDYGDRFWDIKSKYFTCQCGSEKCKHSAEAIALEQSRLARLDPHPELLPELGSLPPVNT
Chain of Bombesin receptor subtype-3 (P32247 whole entry): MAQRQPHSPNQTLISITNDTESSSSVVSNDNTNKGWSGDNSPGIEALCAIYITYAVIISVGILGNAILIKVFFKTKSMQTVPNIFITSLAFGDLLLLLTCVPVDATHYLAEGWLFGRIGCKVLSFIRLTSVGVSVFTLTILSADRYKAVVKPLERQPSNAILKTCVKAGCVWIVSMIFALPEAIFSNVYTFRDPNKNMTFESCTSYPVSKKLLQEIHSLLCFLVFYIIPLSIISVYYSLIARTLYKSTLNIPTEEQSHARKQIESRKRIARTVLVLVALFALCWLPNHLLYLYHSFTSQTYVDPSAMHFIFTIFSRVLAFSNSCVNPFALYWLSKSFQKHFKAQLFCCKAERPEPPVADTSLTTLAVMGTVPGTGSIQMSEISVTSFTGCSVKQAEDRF

CC(C)N(CCCNC(=O)Nc1ccc(C(C)(C)C)cc1)C[C@H]1O[C@@H](n2cc(Br)c3c(N)ncnc32)[C@H](O)[C@@H]1O
% of inhibition [1]: 22% | IC50 [2]: > 100 µM | IC50 [3]: > 100 µM | IC50 [4]: > 100 µM | IC50 [5]: > 100 µM | IC50 [6]: > 100 µM | IC50 [7]: > 100 µM | IC50 [8]: > 100 µM | IC50 [9]: > 100 µM | IC50 [10]: > 100 µM | IC50 [11]: > 100 µM | IC50 [12]: > 100 µM

O=C(NCC(=O)N1CCCC1)Nc1ccc2cnccc2c1
Ki [13]: > 15 µM | % of control [14]: 69% | % of control [15]: 56% | % of control [16]: 60% | % of control [17]: 61% | % of control [18]: 58% | % of control [19]: 55% | % of control [20]: 60%

O=C([C@@H](Cc1cccc(C(F)(F)F)c1)NS(=O)(=O)c1cc(F)c2c(c1)CCNC2)N1CCCC1
Ki (Adenosine receptor A2b): 1.3 µM | Ki [21]: 3.8 µM | EC50 [22]: > 10 µM | Kd [23]: 0.018 µM | EC50 [24]: > 10 µM | EC50 [25]: > 10 µM | Ki [26]: 8.1 µM | EC50 [27]: > 10 µM | EC50 [28]: > 10 µM | EC50 [29]: > 10 µM | EC50 [30]: > 10 µM | EC50 [31]: > 10 µM | EC50 [32]: > 10 µM | EC50 [33]: > 10 µM | EC50 [34]: > 10 µM | EC50 [35]: > 10 µM | EC50 [36]: > 10 µM | EC50 [37]: > 10 µM | EC50 [38]: > 10 µM | EC50 [39]: > 10 µM | EC50 [40]: > 10 µM | EC50 [41]: > 10 µM | EC50 [42]: > 10 µM | Ki [43]: 7.2 µM

COc1cc(Nc2ccnc3ccc(Br)cc23)cc(OC)c1OC
Kd (Activin receptor type-1): 0.98 µM
